Results taken from publication PMC10041561 (JID Innovations, 2022).

How the values were obtained:
PTGS2 (COX-2) = molecular target: T1, PTGS2 (COX-2) (Homo sapiens, UniProt P35354); assay: PTGS2; assay type: biochemical, bovine/human; conditions: COX-2 Inhibition Mean IC50, mean of replicates 1-2 (Fig 16g)
T1 sequence (P35354 18-604): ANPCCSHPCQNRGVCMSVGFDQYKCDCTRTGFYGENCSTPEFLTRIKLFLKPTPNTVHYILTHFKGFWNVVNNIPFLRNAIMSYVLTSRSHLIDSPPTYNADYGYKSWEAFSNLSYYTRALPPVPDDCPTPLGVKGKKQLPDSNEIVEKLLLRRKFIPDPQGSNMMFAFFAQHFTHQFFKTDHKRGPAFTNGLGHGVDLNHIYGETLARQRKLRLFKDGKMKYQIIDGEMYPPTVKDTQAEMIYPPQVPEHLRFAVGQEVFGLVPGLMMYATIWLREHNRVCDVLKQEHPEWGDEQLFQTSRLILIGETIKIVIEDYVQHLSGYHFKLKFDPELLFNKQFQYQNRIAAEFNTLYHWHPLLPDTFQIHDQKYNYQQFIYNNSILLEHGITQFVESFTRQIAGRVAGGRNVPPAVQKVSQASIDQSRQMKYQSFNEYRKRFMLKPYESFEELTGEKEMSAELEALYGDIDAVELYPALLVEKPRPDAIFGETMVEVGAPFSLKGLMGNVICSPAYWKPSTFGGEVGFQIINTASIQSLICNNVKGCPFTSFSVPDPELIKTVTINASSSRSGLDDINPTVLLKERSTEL

[1] = test system: reconstituted human epidermis (RHE) tissues; assay: Cortisol in RHE-conditioned medium; assay type: cell-based; conditions: 48 hours, with or without cell viability standardization
[2] = test system: reconstituted human epidermis (RHE) tissues; assay: IL-8 levels in RHE-conditioned medium; assay type: cell-based; conditions: 48 hours
[3] = test system: TNF-stimulated neonatal human epidermal KCs; assay: Microarray gene expression in TNF-stimulated keratinocytes; assay type: cell-based
CB1 receptor = conditions: ref Vučković et al., 2018; cited from earlier work
CB2 receptor = conditions: ref Vučković et al., 2018; cited from earlier work
[4] = ref Nelson et al., 2020; cited from earlier work
[5] = ref Jaidee et al., 2021; cited from earlier work

Row | IC50 (PTGS2 (COX-2)) [µM] | Structure (SMILES) | cortisol levels in RHE-conditioned medium [1] | IL-8 levels in RHE-conditioned medium [2] | average increase in the expression of unhealthy skin signature genes ([3]; TNF-stimulated KCs) [%] | number of genes decreased ([3]; vs TNF, FDR < 0.10 with FC < 0.80) [genes] | number of genes increased ([3]; vs TNF, FDR < 0.10 with FC > 1.25) [genes] | number of genes with altered expression ([3]; vs TNF, FDR < 0.10 with FC > 1.25 or FC < 0.80) [genes] | affinity for the CB1 receptor (CB1 receptor) | affinity for the CB2 receptor (CB2 receptor) | octanol-water partition coefficient [4] | stability at room temperature [5]
1 | 12.9 | C=C[C@@](C)(/C=C/c1ccc(O)cc1)CCC=C(C)C [BAK, bakuchiol] | significantly decreased cortisol levels | decreased IL-8 |  |  |  |  |  |  |  | 
2 |  | C=C(C)[C@@H]1CCC(C)=C[C@H]1c1c(O)cc(CCCCC)cc1O [CBD, cannabidiol] | not observed |  | 5 | 114 | 205 | 319 | little affinity | little affinity | high | unstable at room temperature
